Assay results reported in EPA's ToxValDB 9.5 (doi:10.2903/j.efsa.2017.4887).
≈ marks a conversion by molar mass, not a printed value.

Experiments:
Folsomia candida = conditions: chronic/long-term; duration: 28 days; reproduction
Oncorhynchus mykiss = conditions: acute; duration: 96 hours; mortality
Anas platyrhynchos = conditions: reproductive
Apis mellifera = conditions: acute, mortality
Colinus virginianus = conditions: acute; oral; mortality
Bibionidae = conditions: chronic/long-term; duration: 28 days; other
Argyrosomus sp. = conditions: acute; duration: 96 hours; mortality
Hypoaspis aculeifer = conditions: chronic/long-term; reproduction
Cyprinodon variegatus = conditions: chronic/long-term; duration: 100 days; reproduction
Aphidius rhopalosiphi = assay: LR50; higher = less toxic; conditions: not reported; mortality
Pleurozium sp. = conditions: acute; duration: 72 hours; growth

SMILES: O=C(O)[C@@H]1CO[C@@](Cn2cncn2)(c2ccc(Cl)cc2Cl)O1 (racemic)
- NOEC (Folsomia candida): 1000 mg/kg
- LC50 (Oncorhynchus mykiss): > 100 µg/mL

SMILES: CCCC1COC(Cn2cncn2)(c2ccc(Cl)cc2Cl)O1 (centres undefined) [Propiconazole]
- NOAEL (Anas platyrhynchos): 25.5 mg/kg-day
- LD50 (Apis mellifera; dermal): 46.3 µg/piece
- LD50 (Apis mellifera; oral, unspecified): 203 µg/piece
- LD50 (Colinus virginianus): ≥ 2510 mg/kg-day
- NOEC (Bibionidae): 4 mg/L
- LC50 (Argyrosomus sp.): 2.6 µg/mL (≈ 7.6 µM)
- LD50 (Rattus norvegicus; acute, oral, mortality): 550 mg/kg-day
- NOAEL (Rattus norvegicus; chronic, duration: 2 years, organ weight): 3.6 mg/kg-day
- NOAEL (Rattus norvegicus; developmental, development): 30 mg/kg-day
- NOAEL (Rattus norvegicus; reproduction developmental, histopathology: nonneoplastic): 8.4 mg/kg-day
- NOEC (Hypoaspis aculeifer): 22.4 mg/kg
- LC50 (Neomysis kadiakensis; acute, duration: 96 hours, mortality): 0.51 µg/mL (≈ 1.49 µM)
- NOEC (Neomysis kadiakensis; chronic/long-term, duration: 28 days, reproduction): 0.114 mg/L
- NOEC (Cyprinodon variegatus): 0.068 mg/L
- LR50 (Aphidius rhopalosiphi): > 250 g/ha

SMILES: O=C(O)[C@H]1CO[C@@](Cn2cncn2)(c2ccc(Cl)cc2Cl)O1 (racemic)
- NOEC (Pleurozium sp.): 112 mg/L
- NOEC (Folsomia candida): 1000 mg/kg
